Reference: patent US11534457B2, “Use of dextran sulfate” (priority 2017, dated 2022)
Marks after values point to notes of the source that are not given here.

Legend:
[1] = test system: severe traumatic brain injury (sTBI); assay: sTBI in rats, HPLC of free amino acids and amino group containing compounds in brain (Example 3); assay type: in vivo, Male Wistar rats
[2] = test system: SAg system [PBMC and HUVEC+TCR ligands]; assay: BioMAP SAg system; assay type: cell-based, Human
Text: In this study LMW-DS was characterized by profiling in the BioMAP® Diversity PLUS panel. The BioMAP® panel consists of human primary cell-based systems designed to model different aspects of the human body in an in vitro format. The 12 systems in the BioMAP® Diversity PLUS panel (Table 32) allow test agent characterization in an unbiased way across a broad set of systems modeling various human disease states. The BioMA®P systems are constructed with one or more primary cell types from healthy human donors, with stimuli, such as cytokines or growth factors, added to capture relevant signaling networks that naturally occur in human tissue or pathological conditions. […]
Systems are derived from either single cell types or co-culture systems. […] Test agents prepared in either DMSO (small molecules; final concentration 0.1%) or PBS (biologics) are added at the indicated concentrations 1-hr before stimulation, and remain in culture for 24-hrs or as otherwise indicated (48-hrs, MyoF system; 72-hrs, BT system (soluble readouts); 168-hrs, BT system (secreted IgG)). […] Soluble factors from supernatants are quantified using either HTRF® detection, bead-based multiplex immunoassay or capture ELISA. Overt adverse effects of test agents on cell proliferation and viability (cytotoxicity) are detected by sulforhodamine B (SRB) staining, for adherent cells, and alamarBlue® reduction for cells in suspension. […]

[3] = Acute phase 1: 15 mg/kg s.c. 30 min post-sTBI, sacrifice 2 days
[4] = Acute phase 2: 15 mg/kg s.c. 30 min post-sTBI, sacrifice 7 days
[5] = Chronic phase: 15 mg/kg s.c. 3 days post-sTBI, sacrifice 7 days

low molecular weight dextran sulfate [LMW-DS]
compounds of the methyl cycle (Met, L-Cystat, SAH) ([1]; 15 mg/kg s.c.): significant beneficial effects | sTBI-induced increase in brain glutamate (GLU) ([1]; 15 mg/kg s.c. 30 min after sTBI): remarkable inhibition | brain glutamate (excitotoxicity marker) ([1]; 15 mg/kg s.c. injected 3 days after sTBI): no efficacy | ALA, cerebral concentration [1, 3]: 0.50 ± 0.12^a μmol/g (w.w.) | ARG, cerebral concentration [1, 3]: 0.13 ± 0.02^b,d μmol/g (w.w.) | ASN, cerebral concentration [1, 3]: 0.12 ± 0.02^i μmol/g (w.w.) | ASP, cerebral concentration [1, 3]: 2.40 ± 0.56^d,i μmol/g (w.w.) | CITR, cerebral concentration [1, 3]: 0.018 ± 0.004 µmol/g (w.w.) | GABA, cerebral concentration [1, 3]: 1.43 ± 0.25^a μmol/g (w.w.) | GLN, cerebral concentration [1, 3]: 4.78 ± 1.09^a μmol/g (w.w.) | GLU, cerebral concentration [1, 3]: 9.81 ± 1.66^i μmol/g (w.w.) | GLY, cerebral concentration [1, 3]: 0.83 ± 0.25^a,c μmol/g (w.w.) | HIS, cerebral concentration [1, 3]: 0.068 ± 0.015^b μmol/g (w.w.) | ILE, cerebral concentration [1, 3]: 0.038 ± 0.007 µmol/g (w.w.) | L-Cystat, cerebral concentration [1, 3]: 0.185 ± 0.031^b,c,i μmol/g (w.w.) | LEU, cerebral concentration [1, 3]: 0.021 ± 0.005^a,c μmol/g (w.w.) | LYS, cerebral concentration [1, 3]: 0.236 ± 0.057^b,d,h μmol/g (w.w.) | MET, cerebral concentration [1, 3]: 0.016 ± 0.005^d,j μmol/g (w.w.) | ORN, cerebral concentration [1, 3]: 0.014 ± 0.007 µmol/g (w.w.) | PHE, cerebral concentration [1, 3]: 0.031 ± 0.011^b,d μmol/g (w.w.) | SAH, cerebral concentration [1, 3]: 0.033 ± 0.008^b,c,j μmol/g (w.w.) | SER, cerebral concentration [1, 3]: 0.88 ± 0.25^a μmol/g (w.w.) | TAU, cerebral concentration [1, 3]: 4.86 ± 0.85^b μmol/g (w.w.) | THR, cerebral concentration [1, 3]: 0.92 ± 0.29^a μmol/g (w.w.) | TRP, cerebral concentration [1, 3]: 0.030 ± 0.007^b,dg,i μmol/g (w.w.) | TYR, cerebral concentration [1, 3]: 0.15 ± 0.03 µmol/g (w.w.) | VAL, cerebral concentration [1, 3]: 0.042 ± 0.011 µmol/g (w.w.) | ALA, cerebral concentration [1, 4]: 0.52 ± 0.24^a,e μmol/g (w.w.) | ARG, cerebral concentration [1, 4]: 0.16 ± 0.03 µmol/g (w.w.) | ASN, cerebral concentration [1, 4]: 0.13 ± 0.03^i μmol/g (w.w.) | ASP, cerebral concentration [1, 4]: 2.94 ± 0.98^f,j μmol/g (w.w.) | CITR, cerebral concentration [1, 4]: 0.018 ± 0.008 µmol/g (w.w.) | GABA, cerebral concentration [1, 4]: 1.60 ± 0.24^a μmol/g (w.w.) | GLN, cerebral concentration [1, 4]: 3.66 ± 0.41 µmol/g (w.w.) | GLU, cerebral concentration [1, 4]: 9.93 ± 1.56^e,i μmol/g (w.w.) | GLY, cerebral concentration [1, 4]: 0.71 ± 0.16^f,i μmol/g (w.w.) | HIS, cerebral concentration [1, 4]: 0.055 ± 0.019 µmol/g (w.w.) | ILE, cerebral concentration [1, 4]: 0.048 ± 0.017^a μmol/g (w.w.) | L-Cystat, cerebral concentration [1, 4]: 0.173 ± 0.038^b,f,i μmol/g (w.w.) | LEU, cerebral concentration [1, 4]: 0.018 ± 0.004 µmol/g (w.w.) | LYS, cerebral concentration [1, 4]: 0.32 ± 0.04^a,e,i μmol/g (w.w.) | MET, cerebral concentration [1, 4]: 0.022 ± 0.006^b,e,i μmol/g (w.w.) | ORN, cerebral concentration [1, 4]: 0.011 ± 0.005 µmol/g (w.w.) | PHE, cerebral concentration [1, 4]: 0.028 ± 0.010 µmol/g (w.w.) | SAH, cerebral concentration [1, 4]: 0.026 ± 0.010^f,i μmol/g (w.w.) | SER, cerebral concentration [1, 4]: 0.71 ± 0.28^b μmol/g (w.w.) | TAU, cerebral concentration [1, 4]: 3.80 ± 1.19 µmol/g (w.w.) | THR, cerebral concentration [1, 4]: 0.66 ± 0.23 µmol/g (w.w.) | TRP, cerebral concentration [1, 4]: 0.015 ± 0.006 µmol/g (w.w.) | TYR, cerebral concentration [1, 4]: 0.172 ± 0.046^b,f μmol/g (w.w.) | VAL, cerebral concentration [1, 4]: 0.057 ± 0.017 µmol/g (w.w.) | ALA, cerebral concentration [1, 5]: 0.57 ± 0.28^a,e μmol/g (w.w.) | ARG, cerebral concentration [1, 5]: 0.14 ± 0.02 µmol/g (w.w.) | ASN, cerebral concentration [1, 5]: 0.18 ± 0.02^a μmol/g (w.w.) | ASP, cerebral concentration [1, 5]: 4.46 ± 0.70^a,f μmol/g (w.w.) | CITR, cerebral concentration [1, 5]: 0.020 ± 0.006 µmol/g (w.w.) | GABA, cerebral concentration [1, 5]: 1.85 ± 0.65^a μmol/g (w.w.) | GLN, cerebral concentration [1, 5]: 3.98 ± 0.34 µmol/g (w.w.) | GLU, cerebral concentration [1, 5]: 13.58 ± 1.28^a μmol/g (w.w.) | GLY, cerebral concentration [1, 5]: 1.05 ± 0.13^a,f μmol/g (w.w.) | HIS, cerebral concentration [1, 5]: 0.047 ± 0.021 µmol/g (w.w.) | ILE, cerebral concentration [1, 5]: 0.041 ± 0.016^b μmol/g (w.w.) | L-Cystat, cerebral concentration [1, 5]: 0.26 ± 0.05^a,f μmol/g (w.w.) | LEU, cerebral concentration [1, 5]: 0.024 ± 0.032^b,f μmol/g (w.w.) | LYS, cerebral concentration [1, 5]: 0.179 ± 0.036 µmol/g (w.w.) | MET, cerebral concentration [1, 5]: 0.009 ± 0.004^b μmol/g (w.w.) | ORN, cerebral concentration [1, 5]: 0.017 ± 0.009^a,e μmol/g (w.w.) | PHE, cerebral concentration [1, 5]: 0.033 ± 0.011^b μmol/g (w.w.) | SAH, cerebral concentration [1, 5]: 0.050 ± 0.013^a μmol/g (w.w.) | SER, cerebral concentration [1, 5]: 0.93 ± 0.27^a,e μmol/g (w.w.) | TAU, cerebral concentration [1, 5]: 4.49 ± 0.43^a μmol/g (w.w.) | THR, cerebral concentration [1, 5]: 0.75 ± 0.24^a,e μmol/g (w.w.) | TRP, cerebral concentration [1, 5]: 0.012 ± 0.007 µmol/g (w.w.) | TYR, cerebral concentration [1, 5]: 0.21 ± 0.05^f μmol/g (w.w.) | VAL, cerebral concentration [1, 5]: 0.040 ± 0.016^b μmol/g (w.w.) | Increased biomarker activity [2]: IL-8
